Assay results taken from article PMC8492656, “Machine learning-guided acyl-ACP reductase engineering for improved in vivo fatty alcohol production” (Nature Communications, 2021).

Target: T1, MA-ACR (parent A, A-AAAAAAAA) (Marinobacter nauticus, UniProt A1U3L3)
T1 construct: gene Maqu_2507; full-length two-domain enzyme (N-terminal AHR, C-terminal ATR), pET28, E. coli host, purified by the same method as His-tagged E. coli ACP; reported elsewhere as tetrameric
T1 sequence (A1U3L3 1-661): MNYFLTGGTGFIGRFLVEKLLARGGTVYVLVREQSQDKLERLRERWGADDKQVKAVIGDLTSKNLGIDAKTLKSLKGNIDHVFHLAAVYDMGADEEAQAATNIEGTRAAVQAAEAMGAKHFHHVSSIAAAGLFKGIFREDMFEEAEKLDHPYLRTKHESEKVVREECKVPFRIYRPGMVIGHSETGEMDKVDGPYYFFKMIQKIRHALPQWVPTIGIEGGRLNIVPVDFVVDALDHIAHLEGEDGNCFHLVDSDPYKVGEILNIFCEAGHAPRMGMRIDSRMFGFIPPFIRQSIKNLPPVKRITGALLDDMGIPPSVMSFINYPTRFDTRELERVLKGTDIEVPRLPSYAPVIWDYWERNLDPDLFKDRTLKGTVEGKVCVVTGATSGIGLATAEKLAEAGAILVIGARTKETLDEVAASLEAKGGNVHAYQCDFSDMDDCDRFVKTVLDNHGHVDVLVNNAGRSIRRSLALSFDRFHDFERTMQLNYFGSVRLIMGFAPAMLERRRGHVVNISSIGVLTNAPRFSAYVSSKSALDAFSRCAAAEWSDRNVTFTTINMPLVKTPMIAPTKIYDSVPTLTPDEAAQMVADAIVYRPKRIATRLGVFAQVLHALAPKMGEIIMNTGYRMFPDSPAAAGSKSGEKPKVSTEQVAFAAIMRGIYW
Assay: DTNB release assay, A412, 96-well plate
Assay type: biochemical
Details: 200 µM NADPH, 1 µM enzyme, 250-252 µM DTNB, 20 mM Tris, 50 mM NaCl, pH 7

CCCCCCCCCCCCCCCC(=O)SCCNC(=O)CCNC(=O)[C@H](O)C(C)(C)COP(=O)(O)OP(=O)(O)OC[C@H]1O[C@@H](n2cnc3c(N)ncnc32)[C@H](O)[C@@H]1OP(=O)(O)O [palmitoyl-CoA]
DTNB release assay, A412, 96-well plate: ATR-83 has a lower activity than the parents on palmitoyl-CoA
